Data from patent US20230414626A1, “INDUCTION OF FERROPTOSIS FOR CANCER THERAPY” (Memorial Sloan Kettering Cancer Center, priority 2020, published 2023).

Key:
BT474 cells = assay: Measurement of lipid peroxidation (BODIPY C11, flow cytometry); assay type: cell-based, human; conditions: with RSL3
Procedure: (§1) FIG. 2 A-E. mTORC1, instead of mTORC2, suppresses ferroptosis. (A) MDA-MB-453 and BT474 were treated with CCI-779 (0.5 μM), RSL3 (1 μM for MDA-MB-453 cells and 0.5 μM for BT474 cells), and Fer-1 (1 μM) as indicated. (B) Cells were seeded in 6-well plate, 4×10^5 cells per well and incubated overnight. MDA-MB-453 and BT474 cells were treated as indicated. CCI-779, 0.5 μM; RSL3, 1 μM for MDA-MB-453 cells and 0.5 μM for BT474 cells; Fer-1, 1 μM. Cells were stained with 5 μM C1I-BODIPY followed by flow cytometry after 8 h-treatment. (C) 3D spheroids were treated as indicated. CCI-779, 0.5 μM; RSL3, 0.5 μM; Fer-1, 1 μM. Top panel, dead cells were stained by SYTOX Green (scale bar, 100 μm). Bottom panel, cell viability was assayed by measuring cellular ATP levels. (D) Cells expressing shRNAs targeting RPTOR or RICTOR were treated as indicated. CCI-779, 0.5 μM; RSL3, 0.5 μM; Fer-1, 1 μM. (E) Lipid peroxidation of samples as in panel D were measured.
(§2) FIG. 7 A-J. PI3K-AKT-mTOR signaling regulates ferroptosis sensitivity. (A) Cells were treated as indicated. GDC-0941, 2 μM; MK-2206, 2 μM; RSL3, 1 μM; Fer-1, 1 μM. Lipid peroxidation was measured. (B) Cells were treated with indicated conditions. Torin, 1 μM; RSL3, 1 μM for MDA-MB-453 cells and 0.5 μM for BT474 cells; Fer-1, 1 μM. Cell death was measured. (C) Cells were treated with indicated conditions. RSL3, 10 μM for MCF cells and PC-3 cells, 5 μM for T47D cells, 1 μM for HepG2 cells; Torin, 1 μM; CCI-779, 0.5 μM. (D) Cells were treated as indicated. CCI-779, 0.5 μM; Torin, 1 μM; Fer-1, 1 μM. Cell death was staining by propidium iodide (PI) (red) or Sytox Green (green) (scale bar, 100 μm). (E-F) 3D spheroids for MDA-MB-453 cells and MCF7 cells were treated as indicated. CCI-779, 0.5 μM; RSL3, 1 μM for MDA-MB-453 cells and 5 μM for MCF7 cells; Fer-1, 1 μM. Top panels, cell death staining (scale bar, 100 m). Bottom panels, cell viability. (G) MDA-MB-453 cells were treated as indicated for 24 h. RSL3, 1 μM; CCI-779, 0.5 μM; GDC-0941, 2 μM; MK-2206, 2 μM; Dabrafenib, 2 μM; SCH772984, 2 μM; Fer-1, 1 μM. (H) Western blot was performed to detect RPTOR and RICTOR knockdown efficiency. (I) HT1080 cells and MDA-MB-231 cells (both with wild-type PI3K-AKT-mTOR pathway) were treated as indicated. RSL3, 0.1 μM for HT1080 and 0.25 μM for MDA-MB-231; Torin, 1 μM; CCI-779, 0.5 μM; Fer-1, 1 μM. Cell death was measured. (J) Two lines of PI3K-AKT-mTOR pathway wild-type cells (HT1080 and MDA-MB-231) and two lines of cells harboring activating mutation of the pathway (BT474 and MDA-MB-453) were treated as indicated. RSL3, 0.25 μM; Fer-1, 1 μM. Western blot was performed to detect the level of pT389 S6K.
(§3) FIG. 11 A-H. SCD1 protects cells against ferroptosis. (A) Cells were pretreated cells with 5 μM CAY10566 overnight. Cells were treated as indicated. RSL3, 1 μM for MDA-MB-453 and 0.5 μM for BT474; Fer-1, 1 μM; CAY10566, 5 μM; Fer-1, 1 μM. (B) Western blot, measuring the SCD knockout efficiency in BT474, MDA-MB-453 and MCF7 cells. (C) MCF cells (sgCtrl, sgSCD #1 and sgSCD #2) were treated as indicated. RSL3, 5 μM; Fer-1, 1 μM. (D) Cells were treated as indicated. RSL3, 1 μM for MDA-MB-453 cells and 0.5 μM for BT474 cells; Fer-1, 1 μM. (E) Cells were treated as indicated. RSL3, 1 μM for MDA-MB-453 cells and 0.5 μM for BT474 cells; Fer-1, 1 μM; CCI-779, 0.5 μM; GDC-0941, 2 μM; MK-2206, 2 μM. (F) SCD1 was overexpressed in BT474 cells. Cells were treated as indicated. RSL3, 0.5 μM; CCI-779, 0.5 μM. Lipid peroxidation was measured. (G) SCD1 was overexpressed in A549 cells and determined by western blot. Cells were treated as indicated. RSL3, 0.25 μM; CCI-779, 0.5 μM. Lipid peroxidation and cell death were measured 6 h and 24 h after treatment, respectively. (H) SCD1 was overexpressed in BT474 cells harboring SREBF1 knockout. SCD1 and SREBP1 level were determined by western blot. Cells were treated as indicated. RSL3, 0.5 μM; CCI-779, 0.5 μM; Fer-1, 1 μM.
(§4) Lipid peroxidation was analyzed by flow cytometry. […]

MDA-MB-453 cells = assay: as above; assay type: cell-based, human; conditions: with RSL3
Procedure: as §1, §2, §3, §4

| SMILES | sensitization to lipid peroxidation (BT474 cells) | sensitization to lipid peroxidation (MDA-MB-453 cells) |
| --- | --- | --- |
| Cc1nnc(-c2ccc(N3CCC(Oc4cc(F)ccc4Cl)CC3)nn2)o1 [CAY10566] | sensitized the effect of RSL3 | sensitized the effect of RSL3 |
| CO[C@H]1C[C@@H]2CC[C@@H](C)[C@@](O)(O2)C(=O)C(=O)N2CCCC[C@H]2C(=O)O[C@H]([C@H](C)C[C@@H]2CC[C@@H](OC(=O)C(C)(CO)CO)[C@H](OC)C2)CC(=O)[C@H](C)/C=C(\C)[C@@H](O)[C@@H](OC)C(=O)[C@H](C)C[C@H](C)/C=C/C=C/C=C/1C [CCI-779, Temsirolimus] | sensitize | sensitize |
| CCCc1cc(-c2nc(-c3ccc(C)cc3)cs2)ccn1 [Fatostatin A] | sensitized | sensitized |
| CS(=O)(=O)N1CCN(Cc2cc3nc(-c4cccc5[nH]ncc45)nc(N4CCOCC4)c3s2)CC1 [GDC-0941] | sensitized | sensitized |
| NC1(c2ccc(-c3nc4ccn5c(=O)[nH]nc5c4cc3-c3ccccc3)cc2)CCC1 [MK-2206] | sensitized | sensitized |
